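Dose response: 5 concentrations. Exposure: 48 h. Format: 96-well plates. Endpoint: linear interpolation; highest concentration if not reached. At the GI50, growth is halved.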 The source made the active and inactive calls. Rule as the data show it: active = GI50 up to about 1.1 µM and inactive = higher.
Tests used:
Assay in all cases: DTP human tumour cell line panel, 48 h
CAKI-1 = test system: CAKI-1
CCRF-CEM = test system: CCRF-CEM
PC-3 = test system: PC-3
Hs-578T = test system: Hs-578T
MDA-MB-231 = test system: MDA-MB-231
T47D = test system: T47D
NCI-H226 = test system: NCI-H226
BT-549 = test system: BT-549
RXF 393 = test system: RXF 393
OVCAR-5 = test system: OVCAR-5
SK-MEL-5 = test system: SK-MEL-5
MDA-MB-435 = test system: MDA-MB-435
MDA-N = test system: MDA-N
A498 = test system: A498
DU-145 = test system: DU-145
DLD-1 = test system: DLD-1
DMS-273 = test system: DMS-273
M19-MEL = test system: M19-MEL
TK-10 = test system: TK-10
ACHN = test system: ACHN

| Structure (SMILES) | GI50 (CAKI-1) | GI50 (CCRF-CEM) | GI50 (PC-3) | GI50 (Hs-578T) | GI50 (MDA-MB-231) | GI50 (T47D) | GI50 (NCI-H226) | GI50 (BT-549) | GI50 (RXF 393) | GI50 (OVCAR-5) | GI50 (SK-MEL-5) | GI50 (MDA-MB-435) | GI50 (MDA-N) | GI50 (A498) | GI50 (DU-145) | GI50 (DLD-1) | GI50 (DMS-273) | GI50 (M19-MEL) | GI50 (TK-10) | GI50 (ACHN) |
| --- | --- | --- | --- | --- | --- | --- | --- | --- | --- | --- | --- | --- | --- | --- | --- | --- | --- | --- | --- | --- |
| CC(=O)O[C@H]1CC[C@H]2[C@@H]3CC[C@H]4Nc5c(cnn5S(C)(=O)=O)C[C@]4(C)[C@H]3CC[C@]12C | 38.1 µM (inactive) | 7.94 µM (inactive) | 64.4 µM (inactive) | 45.6 µM (inactive) | > 100 µM (inactive) | 37 µM (inactive) | 53.5 µM (inactive) | 27.5 µM (inactive) | > 100 µM (inactive) | > 100 µM (inactive) | 84.3 µM (inactive) | > 100 µM (inactive) | > 100 µM (inactive) | > 100 µM (inactive) | > 100 µM (inactive) | – | – | – | – | – |
| O=c1cc[nH]c(=O)[nH]1 [URACIL] | 307 µM (inactive) | 318 µM (inactive) | – | – | – | – | 329 µM (inactive) | – | 316 µM (inactive) | > 746 µM (inactive) | 177 µM (inactive) | – | – | 6.82 µM (inactive) | – | 532 µM (inactive) | 403 µM (inactive) | 279 µM (inactive) | – | – |
| COc1ccc2ccc3oc(=O)c(C)cc3c2c1 | > 100 µM (inactive) | > 100 µM (inactive) | > 100 µM (inactive) | 78 µM (inactive) | 33.9 µM (inactive) | 43.3 µM (inactive) | > 100 µM (inactive) | > 100 µM (inactive) | > 100 µM (inactive) | > 100 µM (inactive) | > 100 µM (inactive) | > 100 µM (inactive) | > 100 µM (inactive) | > 100 µM (inactive) | > 100 µM (inactive) | – | – | – | > 100 µM (inactive) | > 100 µM (inactive) |
| CC/C=C/C(CC)C/C(C)=C\[C@]1(CC)C[C@H](CC)[C@H](CC(=O)O)OO1 (stereo partly drawn) | 0.259 µM (active) | 0.105 µM (active) | 0.366 µM (active) | 2.26 µM (inactive) | 1.76 µM (inactive) | 1.34 µM (inactive) | 1.89 µM (inactive) | – | – | 1.29 µM (inactive) | 1.27 µM (inactive) | 1.46 µM (inactive) | 1.36 µM (inactive) | 1.53 µM (inactive) | 0.451 µM (active) | – | – | – | – | 0.265 µM (active) |
| CC12CCC([C@H](Nc3cc(C(F)(F)F)cc(C(F)(F)F)c3)C1=O)C2(C)C (stereo partly drawn) | > 100 µM (inactive) | – | > 100 µM (inactive) | – | > 100 µM (inactive) | > 100 µM (inactive) | > 100 µM (inactive) | > 100 µM (inactive) | 0.0162 µM (active) | > 100 µM (inactive) | > 100 µM (inactive) | > 100 µM (inactive) | – | – | > 100 µM (inactive) | – | – | – | > 100 µM (inactive) | > 100 µM (inactive) |
| SC1=NC2=C(CSC/C2=C\c2cccc(Br)c2)C(c2cccc(Br)c2)N1 (stereo not drawn) | > 100 µM (inactive) | 65.9 µM (inactive) | 46.7 µM (inactive) | > 100 µM (inactive) | > 100 µM (inactive) | 25 µM (inactive) | > 100 µM (inactive) | – | > 100 µM (inactive) | > 100 µM (inactive) | 30.3 µM (inactive) | 41.3 µM (inactive) | 68.2 µM (inactive) | > 100 µM (inactive) | > 100 µM (inactive) | – | – | – | > 100 µM (inactive) | > 100 µM (inactive) |
| Cc1ccc2nc3c(C(=O)NCCN(C)C)cccc3cc2c1 | – | 1.55 µM (inactive) | – | – | – | – | 1.45 µM (inactive) | – | 2.02 µM (inactive) | 2.1 µM (inactive) | 1.76 µM (inactive) | – | – | 1.56 µM (inactive) | – | 2.01 µM (inactive) | 1.5 µM (inactive) | 1.95 µM (inactive) | – | – |
| O=C1CN2C(Cl)(Cl)C2(c2ccccc2)c2cc(Cl)ccc2N1CC(F)(F)F (stereo not drawn) | 49.3 µM (inactive) | 18.7 µM (inactive) | – | – | – | – | 26.2 µM (inactive) | – | 21.9 µM (inactive) | 56.1 µM (inactive) | 17.9 µM (inactive) | – | – | – | – | 16.4 µM (inactive) | 24.8 µM (inactive) | 38.3 µM (inactive) | 50.2 µM (inactive) | 33.7 µM (inactive) |
| [O-][S+]1c2ccccc2N=C(c2ccc3ccccc3c2)CC1c1ccccc1 (stereo not drawn) | 25.1 µM (inactive) | 31.8 µM (inactive) | – | – | – | – | 23.3 µM (inactive) | – | – | 21.5 µM (inactive) | 27.7 µM (inactive) | – | – | 17.4 µM (inactive) | – | 19 µM (inactive) | 38.6 µM (inactive) | 17.9 µM (inactive) | 22.8 µM (inactive) | 16.4 µM (inactive) |
| O=S1(=O)C[C@@H](NCc2ccccc2)[C@H](NCc2ccccc2)C1 | > 100 µM (inactive) | > 100 µM (inactive) | > 100 µM (inactive) | > 100 µM (inactive) | > 100 µM (inactive) | > 100 µM (inactive) | > 100 µM (inactive) | > 100 µM (inactive) | > 100 µM (inactive) | > 100 µM (inactive) | > 100 µM (inactive) | > 100 µM (inactive) | > 100 µM (inactive) | – | > 100 µM (inactive) | – | – | – | > 100 µM (inactive) | > 100 µM (inactive) |
| COc1cc2c(cc1OC)C(=O)/C(=C/c1cc(OC)c(OC)c(OC)c1)C2 | > 100 µM (inactive) | > 100 µM (inactive) | > 100 µM (inactive) | > 100 µM (inactive) | 66.7 µM (inactive) | 90.2 µM (inactive) | > 100 µM (inactive) | 36.9 µM (inactive) | > 100 µM (inactive) | > 100 µM (inactive) | > 100 µM (inactive) | > 100 µM (inactive) | > 100 µM (inactive) | > 100 µM (inactive) | > 100 µM (inactive) | – | – | – | – | – |
| COC(=O)C(NC(=O)c1ccccc1)C(c1ccc(Cl)cc1)P(=O)(OC)OC (stereo not drawn) | > 100 µM (inactive) | > 100 µM (inactive) | – | – | – | – | > 100 µM (inactive) | – | 33.9 µM (inactive) | > 100 µM (inactive) | > 100 µM (inactive) | – | – | > 100 µM (inactive) | – | > 100 µM (inactive) | > 100 µM (inactive) | > 100 µM (inactive) | > 100 µM (inactive) | > 100 µM (inactive) |
| CC(C)C(/C=C/c1ccc(Cl)cc1)=N\NC(=O)N/N=C(/C=C/c1ccc(Cl)cc1)C(C)C | 18.5 µM (inactive) | 46.5 µM (inactive) | > 100 µM (inactive) | 20.1 µM (inactive) | 22.3 µM (inactive) | 40.8 µM (inactive) | 30.8 µM (inactive) | 34.4 µM (inactive) | 20.7 µM (inactive) | > 100 µM (inactive) | 64.6 µM (inactive) | 30.1 µM (inactive) | 36.6 µM (inactive) | 18.1 µM (inactive) | > 100 µM (inactive) | – | – | – | 25.3 µM (inactive) | 29.2 µM (inactive) |
| CN1C2CC(=O)CC1[C@H](O)[C@@H]2O | – | > 100 µM (inactive) | > 100 µM (inactive) | – | > 100 µM (inactive) | > 100 µM (inactive) | > 100 µM (inactive) | > 100 µM (inactive) | > 100 µM (inactive) | – | – | > 100 µM (inactive) | > 100 µM (inactive) | – | > 100 µM (inactive) | – | – | – | > 100 µM (inactive) | – |
| COC(=O)C(Cc1cn(C(C)=O)c2ccccc12)P(=O)(OC)OC (stereo not drawn) | > 100 µM (inactive) | > 100 µM (inactive) | > 100 µM (inactive) | – | > 100 µM (inactive) | > 100 µM (inactive) | > 100 µM (inactive) | > 100 µM (inactive) | > 100 µM (inactive) | 95.3 µM (inactive) | > 100 µM (inactive) | > 100 µM (inactive) | > 100 µM (inactive) | > 100 µM (inactive) | > 100 µM (inactive) | – | – | – | > 100 µM (inactive) | > 100 µM (inactive) |
| CC1OC1C(=O)C1(O)C(C)C(O)C23OC2(C(O)c2c(O)cccc2C3=O)C1O (stereo not drawn) [CERVICARCIN] | 0.0497 µM (active) | 0.044 µM (active) | – | – | – | – | 0.31 µM (active) | – | 0.191 µM (active) | 0.31 µM (active) | 0.179 µM (active) | – | – | 0.352 µM (active) | – | 0.167 µM (active) | 0.184 µM (active) | 0.0933 µM (active) | – | – |
